One series deals with hOAT1-CHO and HEK-OAT1. Particulars: Ref 35, 37, cited from earlier work.
Series [1] addresses T1, OAT1 (Homo sapiens, UniProt Q4U2R8).
T1 sequence (Q4U2R8 1-550 isoform Q4U2R8-2): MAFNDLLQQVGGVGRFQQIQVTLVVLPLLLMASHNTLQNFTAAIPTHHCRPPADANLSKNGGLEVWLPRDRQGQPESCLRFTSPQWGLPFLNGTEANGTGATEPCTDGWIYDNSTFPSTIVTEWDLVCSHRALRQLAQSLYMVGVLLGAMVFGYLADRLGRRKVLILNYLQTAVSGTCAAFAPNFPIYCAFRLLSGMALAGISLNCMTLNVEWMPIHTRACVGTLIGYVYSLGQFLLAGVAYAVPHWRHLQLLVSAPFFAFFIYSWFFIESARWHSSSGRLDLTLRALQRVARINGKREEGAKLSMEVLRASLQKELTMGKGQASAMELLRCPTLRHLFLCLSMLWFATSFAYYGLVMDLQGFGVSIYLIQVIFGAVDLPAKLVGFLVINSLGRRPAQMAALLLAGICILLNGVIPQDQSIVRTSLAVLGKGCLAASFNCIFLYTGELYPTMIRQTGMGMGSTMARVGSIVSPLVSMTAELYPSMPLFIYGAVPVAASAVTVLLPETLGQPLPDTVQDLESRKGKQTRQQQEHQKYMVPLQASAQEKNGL

For another series, the target named is T2, CHO-OAT1 (Homo sapiens, UniProt Q4U2R8).
T2 construct: host or cells: CHO
T2 sequence (Q4U2R8 1-563): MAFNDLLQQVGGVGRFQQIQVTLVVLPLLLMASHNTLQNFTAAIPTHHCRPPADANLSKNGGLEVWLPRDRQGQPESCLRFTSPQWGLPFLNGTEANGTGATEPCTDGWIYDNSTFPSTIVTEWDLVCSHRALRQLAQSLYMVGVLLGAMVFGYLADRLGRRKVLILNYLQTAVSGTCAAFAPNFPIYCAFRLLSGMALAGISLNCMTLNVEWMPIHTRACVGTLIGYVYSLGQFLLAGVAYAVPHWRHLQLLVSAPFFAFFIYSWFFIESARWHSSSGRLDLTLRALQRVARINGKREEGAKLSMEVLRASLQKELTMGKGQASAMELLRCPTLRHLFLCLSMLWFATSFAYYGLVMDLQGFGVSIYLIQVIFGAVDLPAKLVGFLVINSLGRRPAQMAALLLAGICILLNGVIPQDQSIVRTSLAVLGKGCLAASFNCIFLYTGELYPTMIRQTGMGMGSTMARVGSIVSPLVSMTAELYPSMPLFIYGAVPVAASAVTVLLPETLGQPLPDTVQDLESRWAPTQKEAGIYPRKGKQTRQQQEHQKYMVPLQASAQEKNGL
The settings on record: read-out: KI (literature), cited from earlier work.

A further series deals with T3, HeLa-OAT1 (Homo sapiens, UniProt Q4U2R8).
T3 construct: host or cells: HeLa
T3 sequence (Q4U2R8 1-563): T2 sequence (Q4U2R8 1-563)
Particulars: substrate PAH, HeLa-OAT1, Ref. 29; read-out: IC50 (literature); cited from earlier work.

The subject of another series is ciPTEC-OAT1. Nature of the series: MTT viability assay in ciPTEC-OAT1. Particulars: for Cell viability (MTT) relative to no exposure: ciPTEC-OAT1, 1 mM, 48 h; for IC50: serum free medium, mean ± SEM, n ≥ 3. In kind it is cell-based, human. Background: Formazan colour is commonly taken as a measure of viable cells.
The target in the next series is T4, OAT3 (Homo sapiens, UniProt Q8TCC7).
T4 sequence (Q8TCC7 1-542): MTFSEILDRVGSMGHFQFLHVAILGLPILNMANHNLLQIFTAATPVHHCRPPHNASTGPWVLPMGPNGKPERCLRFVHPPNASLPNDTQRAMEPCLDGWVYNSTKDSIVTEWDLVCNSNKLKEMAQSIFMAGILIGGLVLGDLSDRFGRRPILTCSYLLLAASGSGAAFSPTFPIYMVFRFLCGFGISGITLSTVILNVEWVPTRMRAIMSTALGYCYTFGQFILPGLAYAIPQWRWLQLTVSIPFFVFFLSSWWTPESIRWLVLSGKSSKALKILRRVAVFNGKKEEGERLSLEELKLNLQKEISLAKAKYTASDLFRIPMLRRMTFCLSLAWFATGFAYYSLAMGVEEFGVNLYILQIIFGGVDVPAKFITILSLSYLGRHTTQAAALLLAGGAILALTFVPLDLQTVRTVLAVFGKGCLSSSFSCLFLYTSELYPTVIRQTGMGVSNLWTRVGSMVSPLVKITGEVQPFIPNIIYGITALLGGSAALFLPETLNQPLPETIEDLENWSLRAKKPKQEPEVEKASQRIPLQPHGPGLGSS

Another series addresses T5, Xenopus-OAT3 (Homo sapiens, UniProt Q8TCC7).
T5 construct: host or cells: Xenopus oocytes
T5 sequence (Q8TCC7 1-542): T4 sequence (Q8TCC7 1-542)
The settings on record: substrate estrone sulfate, Xenopus-OAT3, References 50, 53; read-out: IC50 (literature); cited from earlier work.

The target in a further series is OCT2 (Homo sapiens, UniProt O15244). Particulars: ASP+ 1 μM, 60 min, HBSS, 37° C.; similar IC50 in ciPTEC parent, ciPTEC-OAT1 and ciPTEC-OAT3 (p>0.05).
A further series concerns the target T6, CHO-OAT3 (Homo sapiens, UniProt Q8TCC7).
T6 construct: host or cells: CHO
T6 sequence (Q8TCC7 1-542): T4 sequence (Q8TCC7 1-542)
The settings on record: substrate Sitagliptin, CHO-OAT3, Reference 51; read-out: IC50 (literature); cited from earlier work.

For series [2], the system named is OAT1. Nature of the series: OAT1 gene expression in ciPTEC-OAT1 with or without EGF (quantitative PCR). The class given is cell-based, human. Particulars: ciPTEC-OAT1, EGF 10 ng/mL, 48 hours. As for the experimental part:
ciPTEC-OAT1. 4B2 DSM ACC3279 was cultured in phenol red-free DMEM/F12 (Invitrogen, Breda, The Netherlands), as described in example 1 here above. Cells were seeded at a density of 63,000 cell/cm^2, cultured for 24 hours at 33° C. and subsequently at 37° C. for 7 days. To study the effects of EGF, matured ciPTEC-OAT1 were treated for 48 hours in the presence or absence of EGF (10 ng/mL).
OAT1 gene expression profiling was performed by isolating total RNA from cells grown in six-well plates, using an RNeasy Mini kit (Qiagen, Venlo, The Netherlands), according to the manufacturers specifications. Subsequently, cDNA was synthesized using the Omniscript RT-kit (Qiagen). Subsequently, quantitative PCR was performed in a CFX96 Real-Time PCR detection system (Bio-rad, Veenendaal, The Netherlands) according to the manufacturers conditions. GAPDH was used as reference gene for normalization and relative expression levels were calculated as fold change using the 2^−ΔΔCT method. The primer-probe sets for the quantitative PCR were obtained from Applied Biosystems: GAPDH—hs99999905 ml and OAT1—hs00537914.

A further series has as its system ciPTEC-OAT3. Nature of the series: MTT viability assay in ciPTEC-OAT3. Here is the method: (§1) Briefly, monolayers of ciPTEC (96-wells) were exposed to antivirals in serum-free medium (SFM) on day 6 of maturation. Cell toxicity was analyzed further in presence of multidrug resistance protein (MRP) efflux inhibitor MK571 (5 μM) and breast cancer resistance protein (BCRP) efflux inhibitor KO143 (10 μM). After incubation for 24, 48 and 72 h at 37° C., ciPTEC were washed and incubated with 0.5 mg/ml thiazolyl blue tetrazolium bromide (MTT, Sigma) for 3 h at 37° C. in absence of antivirals. Formazan crystals formed in viable cells were dissolved in dimethyl sulfoxide (DMSO, Merck, Whitehouse Station, USA) and optical density was measured (560 nm, background at 670 nm was subtracted) using Benchmark Plus (Bio-Rad, Hercules, USA).
(§2) Non-linear regression with variable slope constraining the top to 100% was used to fit the data after background subtraction with GraphPad Prism. Statistics was performed by two-way ANOVA (two-tailed, α=0.05) using GraphPad Prism as well. All data is presented as mean±SEM of at least three separate experiments (n=3) performed in triplicate, unless stated otherwise.

Another series deals with ciPTEC parent. Nature of the series: MTT viability assay in ciPTEC parent. The class given is cell-based, human. Particulars: 10×Cmax (50 μM), with MRP4 inhibitor MK571 and BCRP inhibitor KO143. Here is the method: as §1, §2
For series [3] the following is noted: Varma et al., 2009; cited from earlier work.
Where [4] appears, read: 120 h, read-out: Inhibitory potency on cell viability, literature 120 h.
The mark [5] stands for this setting: read-out: Inhibitory potency on cell viability, literature 48 h, 48 h.

Where “and” joins values, the source holds several entries; their conditions need not be identical. Identical values can stand only once. Like-named read-outs stand apart in the source and are kept apart here.

OCT2, sequence (O15244 whole entry): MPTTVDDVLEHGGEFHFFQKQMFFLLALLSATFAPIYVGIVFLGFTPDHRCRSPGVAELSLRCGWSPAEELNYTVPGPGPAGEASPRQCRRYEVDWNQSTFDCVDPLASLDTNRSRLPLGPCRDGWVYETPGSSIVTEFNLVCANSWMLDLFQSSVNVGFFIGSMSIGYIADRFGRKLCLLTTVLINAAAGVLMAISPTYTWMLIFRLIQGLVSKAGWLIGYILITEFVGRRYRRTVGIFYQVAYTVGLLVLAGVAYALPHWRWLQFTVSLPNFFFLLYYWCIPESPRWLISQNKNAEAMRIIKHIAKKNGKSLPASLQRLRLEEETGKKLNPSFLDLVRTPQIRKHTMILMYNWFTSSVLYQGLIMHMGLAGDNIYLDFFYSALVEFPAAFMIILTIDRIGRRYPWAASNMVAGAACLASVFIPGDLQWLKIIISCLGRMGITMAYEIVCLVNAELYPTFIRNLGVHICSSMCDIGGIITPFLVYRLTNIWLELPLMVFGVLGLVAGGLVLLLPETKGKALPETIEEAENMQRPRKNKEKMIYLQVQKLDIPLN

For `Nc1ccn(C[C@@H](CO)OCP(=O)(O)O)c(=O)n1` [Cidofovir], the IC50 is 3 ± 1 µM in the series with hOAT1-CHO and HEK-OAT1 (setting [4]); 0.5 ± 0.2 µM in the series on hOAT1-CHO and HEK-OAT1 (setting [5]); 71 ± 34 µM on OAT1 [1].

The term Ki denotes a dissociation constant, usually derived from enzyme kinetics or from competition with a known ligand. Turning to `Nc1ncnc2c1ncn2CCOCP(=O)(O)O` [Adefovir], the Ki on CHO-OAT1 (CHO-OAT1, substrate not given) was 23.8 µM. The IC50 on HeLa-OAT1 was 8.1 µM; in the series on hOAT1-CHO and HEK-OAT1 (setting [4]) it was 1.4 ± 0.7 µM; with hOAT1-CHO and HEK-OAT1 (setting [5]), 0.22 ± 0.08 µM; against OAT1 [1] it was 23 ± 4 µM. Moreover, the “Cell viability (MTT) relative to no exposure” value in the series with ciPTEC-OAT1 was “significantly affected”.

As for `CN/C(=N/CCSCc1nc[nH]c1C)NC#N` [Cimetidine], the IC50 against OAT3 was 215 ± 162 µM; at Xenopus-OAT3, 53 µM; at CHO-OAT3, 79 µM; against OAT1 [1] it was 654 ± 291 µM. Further, on OCT2, the “Inhibition of ASP+ uptake at OCT2” value is “significant inhibition”.

Consider `Nc1ccc(C(=O)NCC(=O)O)cc1` [para-aminohippuric acid], for which, at OAT3, the IC50 stood at 152 ± 3 µM.

Turning to estrone sulfate, the IC50 at OAT3 is 2.1 ± 0.3 µM; at Xenopus-OAT3 it was 3 µM.

As a reminder, the Km is the concentration of substrate that gives half-maximal velocity. For the molecule `O=C1OC2(c3ccc(O)cc3Oc3cc(O)ccc32)c2ccccc21` [fluorescein], the Michaelis constant (Km) was found to be 3.7 ± 0.5 µM at OAT3 and 0.8 ± 0.1 µM on OAT1 [1].

As for “EGF: Epidermal growth factor (NSDSECPLSHDGYCLHDGVCMYIEALDKYACNCVVGYIGERCQYRDLKWWELR; Epidermal growth factor; UniProt P01133 971-1023, looked up)”, in the series with OAT1 [2], the OAT1 gene expression result is on record as “significantly increased”.

Turning to `C[C@H](Cn1cnc2c(N)ncnc21)OCP(=O)(O)O` [Tenofovir], the “Cell viability (MTT) relative to no exposure” value is listed as “slightly decreased” with ciPTEC-OAT3 (ciPTEC-OAT3, 1 mM, 48 h) and “significantly affected” with ciPTEC-OAT1. Also, at CHO-OAT1 (Ref. 35, substrate and cell line not given), the inhibitory constant (Ki) was 33.8 µM. The IC50 was 29.3 µM on HeLa-OAT1; 114 ± 25 µM with ciPTEC-OAT1 (ciPTEC-OAT1, 24 h exposure, read-out: Inhibitory potency on cell viability (MTT), 24 h); 223 ± 67 µM in the series with ciPTEC-OAT1 (ciPTEC-OAT1, 72 h exposure, read-out: Inhibitory potency on cell viability (MTT), 72 h); 189 ± 48 µM with ciPTEC-OAT1 (read-out: Inhibitory potency on cell viability (MTT), 48 h, ciPTEC-OAT1, 48 h exposure); 21 ± 7 µM in the series on hOAT1-CHO and HEK-OAT1 (setting [4]); 10 ± 2 µM in the series with hOAT1-CHO and HEK-OAT1 (setting [5]). At OAT1 [1], this molecule registered an IC50 of 42 ± 8 µM. For the same molecule, the “DDI index Cmax/IC50” value on OAT1 [1] is 0.014 and 0.019.

In the case of `Cc1cn([C@H]2C[C@H](N=[N+]=[N-])[C@@H](CO)O2)c(=O)[nH]c1=O` [Zidovudine], the “Cell viability with efflux inhibitors” value in the series with ciPTEC-OAT3 (ciPTEC-OAT3, 10×Cmax (50 μM), with MK571 and KO143) was “did not affect cell viability”; in the series with ciPTEC parent, “did not affect cell viability”; in the series on ciPTEC-OAT1 (ciPTEC-OAT1, 10×Cmax (50 μM), with MK571 and KO143) it was “did not affect cell viability”. In addition, the “Cell viability as determined by the MTT assay” value in the series with ciPTEC-OAT1 (ciPTEC-OAT1 and ciPTEC-OAT3, exposure for 24-72 h) is listed as “did not affect cell viability”. In [3], the “Fraction eliminated via the urine without metabolic alterations” value is on record as 23%.
